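Compound exposure: 48 hours, 5 concentrations, 96-well plates. GI50 is the concentration that inhibits growth by half.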 The source made the active and inactive calls. Rule as the data show it: active = GI50 up to about 1.1 µM and inactive = higher.
Legend:
Assay in all cases: DTP human tumour cell line panel, 48 h
[1] = system: A549
[2] = system: COLO 205
[3] = system: EKVX
[4] = system: K562
[5] = system: LOX IMVI
[6] = system: M14
[7] = system: MDA-MB-435
[8] = system: Malme-3M
[9] = system: NCI-H226
[10] = system: SF-268
[11] = system: SF-295
[12] = system: SN12C
[13] = system: SNB-19
[14] = system: SNB-75
[15] = system: T47D
[16] = system: UACC-257
[17] = system: UO-31
[18] = system: RXF 393
[19] = system: SK-MEL-28

Measured: GI50

O=C(O)c1ccccc1/C=N\N=C1NCCCCN1
inactive: [1] > 100 µM | [2] > 100 µM | [3] > 100 µM | [4] > 100 µM | [5] > 100 µM | [6] > 100 µM | [7] > 100 µM | [8] > 100 µM | [9] > 100 µM | [10] > 100 µM | [11] > 100 µM | [12] > 100 µM | [13] > 100 µM | [14] > 100 µM | [15] > 100 µM | [16] > 100 µM | [17] > 100 µM

C[C@H]1CC[C@@H]2[C@@H](C)[C@H]3[C@H](C[C@H]4[C@@H]5CC=C6C[C@@H](O)CC[C@]6(C)[C@H]5CC[C@]34C)N2C1
inactive: [1] > 100 µM | [2] 16.3 µM | [3] 36.4 µM | [5] 36.1 µM | [6] 74 µM | [7] 89.7 µM | [8] > 100 µM | [9] 14.6 µM | [18] 19.4 µM | [10] > 100 µM | [11] 40.6 µM | [19] 47.1 µM | [12] > 100 µM | [13] 97.9 µM | [15] 86.9 µM | [16] 45.1 µM | [17] 60.5 µM

O=C(NC(C(F)(F)F)(C(F)(F)F)P(=O)(Cc1ccccc1)Cc1ccccc1)C(C(F)(F)F)C(F)(F)F
inactive: [1] 25.9 µM | [2] 18.4 µM | [3] 26.4 µM | [4] 23 µM | [5] 18.1 µM | [6] 18.4 µM | [7] 17.4 µM | [8] 19.1 µM | [9] 13.4 µM | [18] 21 µM | [10] 23.3 µM | [11] 20.7 µM | [19] 25.6 µM | [12] 17.7 µM | [13] 27.7 µM | [15] 34.9 µM | [16] 22.6 µM

O=[N+]([O-])c1c(O)c2nonc2c2nn(-c3ccccc3)nc12
inactive: [1] > 100 µM | [2] > 100 µM | [3] > 100 µM | [4] > 100 µM | [5] > 100 µM | [6] > 100 µM | [7] > 100 µM | [8] > 100 µM | [9] 6.85 µM | [10] > 100 µM | [11] > 100 µM | [19] > 100 µM | [12] > 100 µM | [13] > 100 µM | [14] > 100 µM | [15] > 100 µM | [16] > 100 µM | [17] 43.2 µM

COC(=O)/C=C\n1ncc(=O)[nH]c1=O
inactive: [1] > 100 µM | [2] > 100 µM | [3] > 100 µM | [4] > 100 µM | [6] > 100 µM | [7] 99.5 µM | [8] > 100 µM | [9] > 100 µM | [10] > 100 µM | [19] > 100 µM | [12] > 100 µM | [13] > 100 µM | [14] > 100 µM | [15] > 100 µM | [16] > 100 µM | [17] > 100 µM

CC#CC#C/C(=C/C=CC(=O)OC)SC
inactive: [1] > 100 µM | [2] > 100 µM | [3] > 100 µM | [4] > 100 µM | [5] > 100 µM | [6] > 100 µM | [7] > 100 µM | [8] > 100 µM | [9] > 100 µM | [10] > 100 µM | [11] > 100 µM | [19] > 100 µM | [12] > 100 µM | [14] 39.4 µM | [15] > 100 µM | [16] > 100 µM

O=C(O)CCC(=O)Nc1ccc2c(c1)S(=O)(=O)N(CC(=O)O)C2=O
inactive: [1] > 100 µM | [2] > 100 µM | [3] > 100 µM | [4] > 100 µM | [5] > 100 µM | [6] > 100 µM | [7] > 100 µM | [8] 39.2 µM | [9] > 100 µM | [11] > 100 µM | [19] > 100 µM | [12] > 100 µM | [13] > 100 µM | [15] > 100 µM | [16] > 100 µM | [17] > 100 µM

COc1ccc(NC(=S)N/N=C\c2ccc(NC(C)=O)cc2)cc1
inactive: [1] > 100 µM | [2] > 100 µM | [3] > 100 µM | [5] > 100 µM | [6] > 100 µM | [7] > 100 µM | [8] > 100 µM | [11] > 100 µM | [19] > 100 µM | [12] > 100 µM | [13] > 100 µM | [14] > 100 µM | [15] > 100 µM | [16] > 100 µM | [17] > 100 µM

From ChEMBL document CHEMBL1201862, “PubChem BioAssay data set” (2004)
